# Molecular target: T1, human FSH receptor (Homo sapiens, UniProt P23945)
# T1 construct: expressed in transfected cells; host or cells: CHO cells (hFSHR clone 16)
# T1 sequence (P23945 18-695): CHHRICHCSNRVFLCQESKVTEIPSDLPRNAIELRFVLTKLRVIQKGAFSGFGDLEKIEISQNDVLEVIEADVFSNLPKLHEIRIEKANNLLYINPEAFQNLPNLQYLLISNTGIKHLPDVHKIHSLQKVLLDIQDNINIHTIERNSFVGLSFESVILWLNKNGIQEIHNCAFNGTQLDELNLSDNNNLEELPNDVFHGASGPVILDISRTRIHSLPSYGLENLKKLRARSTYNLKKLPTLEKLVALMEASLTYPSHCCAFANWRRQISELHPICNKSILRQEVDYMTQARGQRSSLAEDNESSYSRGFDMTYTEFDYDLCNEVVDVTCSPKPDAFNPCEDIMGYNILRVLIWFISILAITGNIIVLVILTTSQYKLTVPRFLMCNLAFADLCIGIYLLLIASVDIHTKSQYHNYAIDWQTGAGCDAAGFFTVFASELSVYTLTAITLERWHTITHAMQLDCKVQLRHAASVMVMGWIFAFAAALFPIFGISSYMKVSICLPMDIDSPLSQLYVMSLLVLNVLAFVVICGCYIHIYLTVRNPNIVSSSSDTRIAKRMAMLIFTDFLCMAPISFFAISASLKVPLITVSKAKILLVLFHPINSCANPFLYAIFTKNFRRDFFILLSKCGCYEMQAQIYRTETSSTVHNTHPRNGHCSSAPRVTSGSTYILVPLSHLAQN
# Assay: HTRF assay for measuring cAMP in cells (FSH antagonism)
# Format: cell-based
# Conditions: FSH antagonistic effect; hFSHR clone 16 cells (CHO cells stably transfected with the human FSH receptor); in the presence of 1 e-9 mol/I hFSH; 37°C for 2h
# Description: HTRF assay for measuring cAMP in cells
# The method is based on a competitive immunoassay between native cAMP, which has been produced by the cells, and cAMP which is labelled with cAMPD2 conjugate. The tracer binding was visualized by a monoclonal antibody, anti-cAMP labelled with cryptate [HTRF = homogeneous time-resolved fluorescence]. The specific signal is inversely proportional to the cAMP concentration of the samples employed. The 665nm/ 620nm fluorescence ratio was evaluated.
# The following material was used: 96-well plates for the tissue culture, 96-well plates with black edge and black base (e.g. Fluotrac 600 from Greiner), 96-well plates for the substance dilutions of polypropylene and cAMP Femtomolar (4000wells Kit, CIS Bio International # 62AM5PEJ). The following reagents were used: BSA (bovine serum albumin) Fraction V protease-free, IBMX (3-isobutyl-1-methylxanthine), hFSH (human follicle stimulating hormone), Triton X-100 analytical grade, potassium fluoride analytical grade, G 418 (Geneticin) and Accutase. • Buffer 1 (washing and testing buffer) contained PBS, 1 mM CaCl2, 1 mM MgCl2, 0.2% glucose; 0.1% BSA, 1 mM IBMX. • Buffer 2 (2x lysis buffer) contained 1% Triton X-100 in PBS (without CaCl2 and MgCl2). • Buffer 3 (assay buffer) contained 50 mM potassium phosphate buffer (pH 7.0); 800 mM potassium fluoride; 0.2% BSA (always added fresh).
# On day 1, the cells were seeded in 96-well plates (3x10^4 cells per well hFSHR clone 16 cells (CHO cells stably transfected with the human FSH receptor in 150 µl of medium). The next day, test substance dilutions were made up. For this purpose, all the substances were diluted in ice-cold buffer 1 (with or without hFSH), and the substance dilutions were placed on ice until applied to the cells.
# The cell supernatant was then aspirated off, and the cells were washed 2x with 200 µl of buffer 1. The cells were treated with 60 µl of the appropriate substance concentrations at 37°C for 2h. The cells were then lysed with 60 µl of buffer 2 (put onto the supernatant) (on a plate shaker at RT for 30 min).
# The test conjugates (cAMP-D2 and anti-cAMP cryptate, CIS Bio) were diluted in buffer 3 in accordance with the manufacturers' information. The actual mixture for measurement was pipetted into a black 96-well plate (in each case 15 µl of the cell lysate diluted with 35 µl of buffer 1; firstly 25 µl of cAMP-D2 conjugate were pipetted and, after 10 min, 25 µl of the anti-cAMP cryptate were added). This is followed by incubation at RT for 90 minutes. The measurement was carried out in a PheraStar (BMG).
# 1) hFSHr clone 16 Ham's F12 PSG 10% FCS 700 µg/ml G 418 (Geneticin) from PAA.
# Dose-effect curve (hFSH) for the human receptor: 1e-8, 3e-9, 1e-9, 3e-10, 1e-10, 3e-11, 1e-11, 3e-12 mol/l.
# The test substances were employed in suitable dilutions in the absence (test for agonism) and in the presence of 1 e-9 mol/I hFSH.
# The values of the well ratio were averaged and then entered directly in SigmaPlot versus the concentrations. The maximum and minimum values were determined for each plate, and half the difference is to be regarded as IC50.
row,IC50 [µM],SMILES
1,3.5,"COc1ccc(-c2cc(OC)c(OC)c(OC)c2)cc1S(=O)(=O)N[C@@H](CO)Cc1c[nH]c2ccccc12 [Example 1, 4,3',4',5'-Tetramethoxy-biphenyl-3-sulfonic acid [(R)-2-hydroxy-1-(1H-indol-3-ylmethyl)-ethyl]-amide]"
2,4,"CNC(=O)c1ccc(-c2ccc(OC)c(S(=O)(=O)N[C@@H](CO)Cc3c[nH]c4ccccc34)c2)cc1Cl [Example 3, 3-Chloro-3'-[(R)-2-hydroxy-1-(1H-indol-3-ylmethyl)-ethylsulfamoyl]-4'-methoxybiphenyl-4-carboxylic acid me-thylamide]"
3,0.18,"CNC(=O)c1ccc(-c2ccc(OC(C)C)c(S(=O)(=O)N[C@@H](CO)Cc3c[nH]c4ccccc34)c2)cc1Cl [Example 9, 3-Chloro-3'-[(R)-2-hydroxy-1-(1H-indol-3-ylmethyl)-ethylsulfamoyl]-4'-isopropoxybiphenyl-4-carboxylic acid methylamide]"
4,2.5,"CNC(=O)c1ccc(C#Cc2ccc(OC)c(S(=O)(=O)N[C@@H](CO)Cc3c[nH]c4ccccc34)c2)cc1 [Example 18, 4-{3-[(R)-2-Hydroxy-1-(1H-indol-3-ylmethyl)-ethylsulfamoyl]-4-methoxyphenylethynyl}-N-methyl-benzamide]"
5,3.5,"CNC(=O)c1ccc(C#Cc2ccc(OC)c(S(=O)(=O)N[C@H](Cc3c[nH]c4ccccc34)C(C)(C)O)c2)cc1 [Example 22, 4-{3-[(R)-2-Hydroxy-1-(1H-indol-3-ylmethyl)-2-methyl-propyisulfamoyl]-4-methoxyphenylethynyl}-N-methyl-benzamide]"
